# Reference: patent US20070264372A1, “Cosmetic or pharmaceutical product for external use based on papaya” (priority 2006, published 2007)
# System: skin of the volunteers (volar surface of the forearm)
# Experiment: Keratolytic activity: desquamation index after occlusive Finn chamber application, Protocol c)
# Type: in vivo, human
# Experimental: Under Protocol c) a study was carried out aimed to evaluate the Keratolytic activity of a raw, fermented papaya material for cosmetic use. The study was carried out according to a double-blinded protocol with randomisation of the application sites. Under the test, irritating products were applied to the skin of the volunteers by means of an occlusive chamber (Finn chamber, Ø 7.0 mm) containing a disc of absorbing paper wetted with a known quantity (20 μl) of product. The exposure time to the irritating product (Salicylic acid at 1.5, 3.0 and 5.0% (w/v) concentration) was 3 and 6 hours. The application site of the irritating products selected for study purposes was the volar surface of the forearm. The products were applied on the skin of the volunteers for 3 and 6 hours. • b) desquamation index on the images acquired with Comeofix® tape and Visioscan® (Courage+Khazaka electronic GmbH). Desquamation index was calculated as: DI=[2A+(T1·(1−1)+T2·(2−1)+ . . . +Tn·(n−1)]/(n+1) • The variation was calculated as: [formula] I.D. [X]0: Basal desquamation index; I.D. [X]x: Desquamation index at the x concentration (1.5, 3.0 and 5.0%) of fermented papaya or salicylic acid.
structure (smiles),measurement,setting,value
"O=C(O)c1ccccc1O [SALICYLIC ACID, Salicylic acid]",Variation of desquamation index,"1.5% solution, 3 h application",2.58 ± 0.24
same,Variation of desquamation index,"1.5% solution, 6 h application",2.71 ± 0.36
same,Variation of desquamation index,"3.0% solution, 3 h application",3.12 ± 0.24
same,Variation of desquamation index,"3.0% solution, 6 h application",3.24 ± 0.38
same,Variation of desquamation index,"5.0% solution, 3 h application",3.25 ± 0.26
same,Variation of desquamation index,"5.0% solution, 6 h application",3.59 ± 0.43
same,change of desquamation index,"both after 3.0 and 6.0 hours of application, result in words",increase
same,application time at which the maximum keratolytic action was reached,statistical analysis,3 h
same,concentration at which the maximum keratolytic action was reached,statistical analysis,3.0%
